Results taken from ChEMBL document CHEMBL1201862, “PubChem BioAssay data set” (2004).
Calls of active or inactive are those of the source.

Key:
[1] = target: T1, Polyadenylate-binding protein 1 (Homo sapiens, UniProt P11940); assay: MLLE domain peptide-binding blockers, IC50 – biochemical, fluorescence polarization, FITC-PAM2 peptide, dose response (AID 602259); assay type: functional; details: read-out: IC50_Mean
Estrogen receptor beta = Estrogen receptor beta (Homo sapiens, UniProt Q92731); assay: blockers of SRC-3 recruitment to ERβ – biochemical, ELISA, streptavidin-HRP readout, orthogonal assay, confirmation (AID 1060)
Sequence of Estrogen receptor beta (Q92731 whole entry): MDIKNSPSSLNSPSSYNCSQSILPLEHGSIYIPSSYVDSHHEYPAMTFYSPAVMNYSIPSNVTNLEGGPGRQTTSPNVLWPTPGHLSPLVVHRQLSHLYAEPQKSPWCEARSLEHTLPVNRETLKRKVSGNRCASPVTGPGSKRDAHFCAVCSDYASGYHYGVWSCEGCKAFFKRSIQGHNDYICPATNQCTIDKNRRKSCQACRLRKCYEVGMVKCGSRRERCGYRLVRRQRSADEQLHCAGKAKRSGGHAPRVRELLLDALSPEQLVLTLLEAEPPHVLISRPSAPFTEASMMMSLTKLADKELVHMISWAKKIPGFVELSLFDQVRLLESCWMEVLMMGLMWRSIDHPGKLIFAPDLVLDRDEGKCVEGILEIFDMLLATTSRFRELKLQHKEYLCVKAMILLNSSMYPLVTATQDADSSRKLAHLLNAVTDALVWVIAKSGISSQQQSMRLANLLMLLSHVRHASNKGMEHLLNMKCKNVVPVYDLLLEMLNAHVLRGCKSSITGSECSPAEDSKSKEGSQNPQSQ

Bcl-2-like protein 10 = target: T2, Bcl-2-like protein 10 (Homo sapiens, UniProt Q9HD36); assay: Bcl-B/TR3 peptide binding disruption – biochemical, fluorescence polarization, FITC-TR3 peptide, selectivity assay for Bfl-1 inhibitor project, primary screen (AID 748);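 note: fluorescence polarization from a fluorescein-labelled TR3 peptide binding purified Bcl-B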
T2 sequence (Q9HD36 whole entry): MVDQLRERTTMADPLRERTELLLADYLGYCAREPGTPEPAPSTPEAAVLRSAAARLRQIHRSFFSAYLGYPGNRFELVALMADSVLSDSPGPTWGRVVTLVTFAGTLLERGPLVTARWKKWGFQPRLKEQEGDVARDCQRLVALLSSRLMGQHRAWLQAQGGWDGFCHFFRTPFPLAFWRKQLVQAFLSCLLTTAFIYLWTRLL

[2] = target: T1, Polyadenylate-binding protein 1; assay: MLLE binding blockers, Cy5 peptide tracer – biochemical, fluorescence polarization, Cy5-PAM2 peptide, secondary, miRNA deadenylation inhibitor project, dose response (AID 602260); assay type: functional; details: read-out: IC50_Mean
HEK293 [3] = assay: NOD2 signaling inhibitors in MDP-stimulated cells, cell-based, uHTS, luminescence (AID 2001); assay type: functional; details: Homo sapiens
Ion channel NompC = Ion channel NompC (Danio rerio, UniProt Q7T1G6); assay: Dose response cell-based high-throughput screening assay for agonists of the transient receptor potential channel N1 (TRPN1). [Related pubchem assays (depositor defined):AID1424, AID1448]; assay type: functional
Sequence of Ion channel NompC (Q7T1G6 whole entry): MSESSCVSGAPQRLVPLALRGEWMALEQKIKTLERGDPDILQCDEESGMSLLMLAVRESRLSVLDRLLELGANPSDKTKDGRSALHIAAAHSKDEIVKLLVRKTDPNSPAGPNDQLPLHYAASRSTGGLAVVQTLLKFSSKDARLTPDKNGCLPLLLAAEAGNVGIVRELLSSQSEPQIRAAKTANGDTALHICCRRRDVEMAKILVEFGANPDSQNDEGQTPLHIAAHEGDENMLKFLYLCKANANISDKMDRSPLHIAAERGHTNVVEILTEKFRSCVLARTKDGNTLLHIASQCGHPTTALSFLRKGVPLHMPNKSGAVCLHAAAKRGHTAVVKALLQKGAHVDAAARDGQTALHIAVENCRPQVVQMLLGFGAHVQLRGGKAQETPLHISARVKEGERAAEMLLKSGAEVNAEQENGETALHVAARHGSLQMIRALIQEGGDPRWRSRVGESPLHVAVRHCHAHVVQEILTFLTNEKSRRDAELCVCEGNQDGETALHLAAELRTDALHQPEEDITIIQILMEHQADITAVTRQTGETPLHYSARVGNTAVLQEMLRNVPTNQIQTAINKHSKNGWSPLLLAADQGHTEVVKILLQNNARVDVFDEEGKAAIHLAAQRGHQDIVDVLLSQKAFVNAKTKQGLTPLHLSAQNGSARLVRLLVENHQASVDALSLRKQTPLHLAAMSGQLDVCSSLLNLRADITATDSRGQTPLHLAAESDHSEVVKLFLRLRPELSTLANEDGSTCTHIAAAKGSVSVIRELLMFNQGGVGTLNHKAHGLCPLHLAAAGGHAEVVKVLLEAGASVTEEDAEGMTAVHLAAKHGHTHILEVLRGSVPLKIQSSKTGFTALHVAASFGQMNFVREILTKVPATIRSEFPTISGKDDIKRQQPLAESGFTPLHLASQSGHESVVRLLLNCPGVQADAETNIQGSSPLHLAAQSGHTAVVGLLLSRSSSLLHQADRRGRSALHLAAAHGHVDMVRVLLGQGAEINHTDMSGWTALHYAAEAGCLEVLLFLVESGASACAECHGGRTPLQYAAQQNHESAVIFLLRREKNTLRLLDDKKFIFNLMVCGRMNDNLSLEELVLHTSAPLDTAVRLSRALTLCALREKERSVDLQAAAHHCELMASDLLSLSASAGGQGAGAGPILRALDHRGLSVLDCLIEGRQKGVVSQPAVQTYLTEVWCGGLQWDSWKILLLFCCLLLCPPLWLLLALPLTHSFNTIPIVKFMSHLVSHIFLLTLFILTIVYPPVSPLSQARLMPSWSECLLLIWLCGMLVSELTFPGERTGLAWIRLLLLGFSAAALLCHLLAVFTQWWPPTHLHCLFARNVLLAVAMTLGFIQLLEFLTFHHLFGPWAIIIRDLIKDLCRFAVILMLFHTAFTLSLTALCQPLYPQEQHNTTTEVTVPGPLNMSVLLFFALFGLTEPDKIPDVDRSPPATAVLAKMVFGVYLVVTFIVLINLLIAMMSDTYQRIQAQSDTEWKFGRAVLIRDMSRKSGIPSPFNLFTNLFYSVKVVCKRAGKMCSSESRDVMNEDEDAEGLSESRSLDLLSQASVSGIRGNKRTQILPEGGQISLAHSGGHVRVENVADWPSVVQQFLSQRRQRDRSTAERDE

Mucolipin-3 = Mucolipin-3 (Homo sapiens, UniProt Q8TDD5); assay: Fluorescence counterscreen assay for […] agonists: dose response cell-based high-throughput screening assay to identify agonists of the transient receptor potential channel ML3 (TRPML3). [Related pubchem assays: 1424, 1448 ]; assay type: functional
Sequence of Mucolipin-3 (Q8TDD5 whole entry): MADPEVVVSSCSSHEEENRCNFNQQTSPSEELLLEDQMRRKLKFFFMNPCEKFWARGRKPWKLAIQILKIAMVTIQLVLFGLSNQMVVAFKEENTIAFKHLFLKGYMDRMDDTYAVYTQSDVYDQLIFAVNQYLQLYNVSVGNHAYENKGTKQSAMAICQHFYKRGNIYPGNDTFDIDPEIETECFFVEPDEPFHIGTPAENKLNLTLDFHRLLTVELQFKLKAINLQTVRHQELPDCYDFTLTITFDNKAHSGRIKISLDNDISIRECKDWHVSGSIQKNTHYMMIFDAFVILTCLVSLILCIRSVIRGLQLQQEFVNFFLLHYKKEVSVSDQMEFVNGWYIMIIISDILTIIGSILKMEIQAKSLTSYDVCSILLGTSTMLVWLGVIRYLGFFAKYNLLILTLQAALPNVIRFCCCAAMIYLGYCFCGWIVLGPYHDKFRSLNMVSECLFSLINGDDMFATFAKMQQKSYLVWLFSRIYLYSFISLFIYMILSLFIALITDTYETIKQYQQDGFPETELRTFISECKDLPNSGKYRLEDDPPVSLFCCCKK

HEK293 [4] = assay: cells; assay type: functional, cell-based; details: Homo sapiens
HEK293 [5] = assay: inhibition of NOD1-driven NF-kB reporter – cell-based, luminescence, uHTS, primary screen (AID 1578); assay type: functional; details: Homo sapiens
cells = assay type: functional
[6] = THP-1 cell cytotoxicity, dose response, cytotoxicity control for non-replicating M. tuberculosis project (AID 489025); assay type: functional
Protein skinhead-1 = target: T3, Protein skinhead-1 (Caenorhabditis elegans, UniProt P34707); assay type: functional
T3 sequence (P34707 whole entry): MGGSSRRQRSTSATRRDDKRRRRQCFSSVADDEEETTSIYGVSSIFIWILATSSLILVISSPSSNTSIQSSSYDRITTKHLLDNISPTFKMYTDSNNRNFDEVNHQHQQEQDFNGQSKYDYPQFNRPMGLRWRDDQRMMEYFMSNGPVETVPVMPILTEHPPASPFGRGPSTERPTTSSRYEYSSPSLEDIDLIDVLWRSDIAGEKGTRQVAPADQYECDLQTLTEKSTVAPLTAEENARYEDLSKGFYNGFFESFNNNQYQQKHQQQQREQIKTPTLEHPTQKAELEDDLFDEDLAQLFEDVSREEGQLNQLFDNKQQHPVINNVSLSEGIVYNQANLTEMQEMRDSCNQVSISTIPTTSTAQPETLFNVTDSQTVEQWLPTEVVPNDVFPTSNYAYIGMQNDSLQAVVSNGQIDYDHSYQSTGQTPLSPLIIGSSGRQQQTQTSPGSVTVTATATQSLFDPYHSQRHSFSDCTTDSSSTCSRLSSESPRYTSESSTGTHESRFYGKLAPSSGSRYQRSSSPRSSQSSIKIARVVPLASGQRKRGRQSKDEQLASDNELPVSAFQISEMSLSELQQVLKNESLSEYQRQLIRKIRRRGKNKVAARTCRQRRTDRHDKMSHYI

[7] = Vero E6 cell cytotoxicity, dose response, cytotoxicity control for non-replicating M. tuberculosis project, secondary assay (AID 492998); assay type: functional, VeroE6; details: Vero C1008
[8] = target: Glyceraldehyde-3-phosphate dehydrogenase (Homo sapiens, UniProt P04406)
Sequence of Glyceraldehyde-3-phosphate dehydrogenase (P04406 whole entry): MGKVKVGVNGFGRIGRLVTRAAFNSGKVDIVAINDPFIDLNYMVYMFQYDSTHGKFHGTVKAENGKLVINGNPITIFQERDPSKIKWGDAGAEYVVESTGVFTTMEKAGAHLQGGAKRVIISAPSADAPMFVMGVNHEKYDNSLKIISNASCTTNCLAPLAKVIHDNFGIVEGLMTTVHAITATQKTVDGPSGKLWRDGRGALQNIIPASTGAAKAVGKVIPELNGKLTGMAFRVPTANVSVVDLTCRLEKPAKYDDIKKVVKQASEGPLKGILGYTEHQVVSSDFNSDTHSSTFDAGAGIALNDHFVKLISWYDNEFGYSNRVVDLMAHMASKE

[9] = target: T4, Alkaline phosphatase, tissue-nonspecific isozyme (Homo sapiens, UniProt P05186); assay: potency against alkaline phosphatase TNAP – biochemical, luminescent, dose response, SAR follow-up (AID 1056)
T4 sequence (P05186 whole entry): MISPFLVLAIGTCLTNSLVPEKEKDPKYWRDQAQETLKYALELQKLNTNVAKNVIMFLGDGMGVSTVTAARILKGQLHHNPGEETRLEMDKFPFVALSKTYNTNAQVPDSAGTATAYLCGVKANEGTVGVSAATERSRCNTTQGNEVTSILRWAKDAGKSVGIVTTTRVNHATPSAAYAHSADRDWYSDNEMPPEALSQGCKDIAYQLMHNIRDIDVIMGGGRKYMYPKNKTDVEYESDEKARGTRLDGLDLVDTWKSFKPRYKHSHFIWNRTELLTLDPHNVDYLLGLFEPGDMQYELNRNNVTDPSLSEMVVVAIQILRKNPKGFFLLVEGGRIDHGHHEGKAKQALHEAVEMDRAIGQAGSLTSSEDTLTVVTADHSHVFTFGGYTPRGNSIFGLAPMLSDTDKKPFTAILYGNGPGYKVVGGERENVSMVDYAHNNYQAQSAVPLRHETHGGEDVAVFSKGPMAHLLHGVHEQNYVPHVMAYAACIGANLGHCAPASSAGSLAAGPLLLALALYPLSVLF

Caspase-3 = target: T5, Caspase-3 (Homo sapiens, UniProt P42574); assay type: functional;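 note: Dose-response selectivity test against caspase-3 for candidate inhibitors of sentrin-specific proteases (SENPs)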
T5 sequence (P42574 whole entry): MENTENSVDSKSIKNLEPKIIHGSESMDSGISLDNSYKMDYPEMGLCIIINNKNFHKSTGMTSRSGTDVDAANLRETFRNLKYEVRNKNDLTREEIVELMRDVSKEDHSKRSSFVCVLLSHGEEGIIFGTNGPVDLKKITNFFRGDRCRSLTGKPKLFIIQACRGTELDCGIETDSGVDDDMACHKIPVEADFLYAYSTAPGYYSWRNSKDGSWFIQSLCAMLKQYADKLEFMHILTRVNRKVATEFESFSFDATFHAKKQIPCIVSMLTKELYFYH

[10] = target: T6, Sentrin-specific protease 8 (Homo sapiens, UniProt Q96LD8); assay type: functional;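 note: luminescence read-out of SENP8 inhibition, dose-response confirmation following an ultra-high-throughput screen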
T6 sequence (Q96LD8 whole entry): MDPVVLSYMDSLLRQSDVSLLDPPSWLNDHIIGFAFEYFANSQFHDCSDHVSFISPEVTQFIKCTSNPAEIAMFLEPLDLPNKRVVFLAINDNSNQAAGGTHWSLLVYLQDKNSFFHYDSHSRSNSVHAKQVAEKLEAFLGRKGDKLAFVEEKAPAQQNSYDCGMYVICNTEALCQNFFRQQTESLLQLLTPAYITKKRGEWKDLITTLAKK

[11] = target: T7, Voltage-gated N-type calcium channel alpha-1B subunit/Amyloid beta A4 precursor protein-binding family A member 1 (Homo sapiens, UniProt Q00975+Q02410); assay type: protein assay
[12] = target: T8, Sentrin-specific protease 7 (Homo sapiens, UniProt Q9BQF6); assay type: functional;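 note: Luminescence-based dose-response confirmation of ultra-high-throughput screening hits, measuring inhibition of SENP7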
T8 sequence (Q9BQF6 whole entry): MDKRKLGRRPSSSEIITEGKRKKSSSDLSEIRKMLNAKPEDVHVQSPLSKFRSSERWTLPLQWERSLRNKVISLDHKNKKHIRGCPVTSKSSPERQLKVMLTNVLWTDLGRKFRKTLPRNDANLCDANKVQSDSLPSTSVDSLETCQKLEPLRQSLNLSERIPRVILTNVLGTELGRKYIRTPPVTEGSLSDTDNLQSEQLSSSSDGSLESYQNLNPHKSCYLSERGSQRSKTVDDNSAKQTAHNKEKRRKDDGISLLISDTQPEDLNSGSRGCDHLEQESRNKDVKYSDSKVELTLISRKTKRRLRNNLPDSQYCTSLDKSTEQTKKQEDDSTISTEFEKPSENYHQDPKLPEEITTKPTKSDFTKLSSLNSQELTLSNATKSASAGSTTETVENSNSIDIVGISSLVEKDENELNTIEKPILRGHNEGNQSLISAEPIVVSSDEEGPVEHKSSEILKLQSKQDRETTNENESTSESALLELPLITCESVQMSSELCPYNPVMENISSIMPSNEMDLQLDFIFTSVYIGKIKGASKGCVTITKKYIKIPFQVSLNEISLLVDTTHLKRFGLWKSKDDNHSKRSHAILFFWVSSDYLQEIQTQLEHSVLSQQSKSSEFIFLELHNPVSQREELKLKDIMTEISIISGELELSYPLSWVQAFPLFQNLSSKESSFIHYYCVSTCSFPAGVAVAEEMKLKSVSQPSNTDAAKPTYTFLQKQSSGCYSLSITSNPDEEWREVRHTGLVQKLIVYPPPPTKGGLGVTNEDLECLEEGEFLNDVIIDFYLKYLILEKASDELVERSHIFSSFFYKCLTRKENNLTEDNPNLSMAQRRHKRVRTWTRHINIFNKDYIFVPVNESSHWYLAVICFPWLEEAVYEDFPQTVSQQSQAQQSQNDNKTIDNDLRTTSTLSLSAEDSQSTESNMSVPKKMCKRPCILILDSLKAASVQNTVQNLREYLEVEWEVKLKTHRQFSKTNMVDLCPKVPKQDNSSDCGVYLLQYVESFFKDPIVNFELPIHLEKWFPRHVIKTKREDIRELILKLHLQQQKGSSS

[13] = target: T7, Voltage-gated N-type calcium channel alpha-1B subunit/Amyloid beta A4 precursor protein-binding family A member 1; assay type: protein assay; remark: listed apart in the source
[14] = target: T9, Sentrin-specific protease 6 (Homo sapiens, UniProt Q9GZR1); assay type: functional;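 note: Luminescence-based dose-response confirmatory assay of SENP6 inhibition, following up an ultra-high-throughput screen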
T9 sequence (Q9GZR1 whole entry): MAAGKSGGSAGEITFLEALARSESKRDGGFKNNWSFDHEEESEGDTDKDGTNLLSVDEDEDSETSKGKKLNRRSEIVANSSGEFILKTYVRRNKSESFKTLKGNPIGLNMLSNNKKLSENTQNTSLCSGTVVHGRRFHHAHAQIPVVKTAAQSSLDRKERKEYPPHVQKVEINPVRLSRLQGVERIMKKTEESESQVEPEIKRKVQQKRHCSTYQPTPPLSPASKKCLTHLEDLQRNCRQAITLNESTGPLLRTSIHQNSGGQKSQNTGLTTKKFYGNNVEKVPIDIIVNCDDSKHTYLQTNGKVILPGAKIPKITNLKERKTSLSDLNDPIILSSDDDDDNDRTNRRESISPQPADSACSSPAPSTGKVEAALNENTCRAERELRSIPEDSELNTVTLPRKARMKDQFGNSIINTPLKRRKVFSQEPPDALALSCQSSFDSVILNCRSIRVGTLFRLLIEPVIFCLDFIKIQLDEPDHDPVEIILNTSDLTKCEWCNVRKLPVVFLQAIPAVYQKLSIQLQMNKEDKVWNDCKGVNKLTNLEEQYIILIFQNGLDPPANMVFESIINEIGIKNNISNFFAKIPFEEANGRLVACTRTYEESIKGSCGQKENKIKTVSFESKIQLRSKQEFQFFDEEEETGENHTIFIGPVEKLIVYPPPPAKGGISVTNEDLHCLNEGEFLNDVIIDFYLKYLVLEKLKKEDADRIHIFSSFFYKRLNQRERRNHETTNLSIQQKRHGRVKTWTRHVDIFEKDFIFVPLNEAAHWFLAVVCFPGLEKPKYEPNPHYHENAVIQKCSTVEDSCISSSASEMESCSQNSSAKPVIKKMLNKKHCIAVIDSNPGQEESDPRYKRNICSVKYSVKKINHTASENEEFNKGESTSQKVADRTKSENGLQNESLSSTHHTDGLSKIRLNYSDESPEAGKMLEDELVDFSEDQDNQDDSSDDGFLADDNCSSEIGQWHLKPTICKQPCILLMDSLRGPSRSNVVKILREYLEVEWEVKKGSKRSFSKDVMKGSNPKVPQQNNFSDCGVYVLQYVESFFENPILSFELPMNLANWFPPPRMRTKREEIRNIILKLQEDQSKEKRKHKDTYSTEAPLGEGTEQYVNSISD

[15] = target: Cyclin-dependent kinase 5/CDK5 activator 1 (Homo sapiens, UniProt Q00535); assay: blockade of human CDK5 activity – biochemical, cherry-picked samples, set 2, dose response (AID 504545)
Sequence of Cyclin-dependent kinase 5/CDK5 activator 1 (Q00535 whole entry): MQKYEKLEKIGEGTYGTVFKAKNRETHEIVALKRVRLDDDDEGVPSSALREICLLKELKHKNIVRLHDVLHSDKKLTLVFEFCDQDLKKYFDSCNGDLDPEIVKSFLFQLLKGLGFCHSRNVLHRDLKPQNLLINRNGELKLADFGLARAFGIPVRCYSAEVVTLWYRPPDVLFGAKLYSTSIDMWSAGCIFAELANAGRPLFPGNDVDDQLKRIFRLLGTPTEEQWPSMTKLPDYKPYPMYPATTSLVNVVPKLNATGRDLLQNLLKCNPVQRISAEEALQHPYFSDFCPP
Sequence of Cyclin-dependent kinase 5/CDK5 activator 1 (Q15078 whole entry, further chain): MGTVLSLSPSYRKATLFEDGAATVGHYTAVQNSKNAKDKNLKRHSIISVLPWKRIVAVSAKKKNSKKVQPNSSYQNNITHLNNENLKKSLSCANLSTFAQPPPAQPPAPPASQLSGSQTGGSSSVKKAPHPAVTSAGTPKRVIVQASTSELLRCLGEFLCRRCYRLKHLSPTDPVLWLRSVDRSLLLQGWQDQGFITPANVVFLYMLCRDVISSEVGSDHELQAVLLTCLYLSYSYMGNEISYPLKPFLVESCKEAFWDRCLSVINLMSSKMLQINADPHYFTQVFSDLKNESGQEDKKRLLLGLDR

[16] = target: T10, Small ubiquitin-related modifier 1 (Homo sapiens, UniProt P63165); assay: SUMO1 protein interaction blockers, potency – biochemical, fluorescence polarization, uHTS hits, dose response (AID 624382); assay type: functional; details: read-out: IC50_Mean
T10 sequence (P63165 whole entry): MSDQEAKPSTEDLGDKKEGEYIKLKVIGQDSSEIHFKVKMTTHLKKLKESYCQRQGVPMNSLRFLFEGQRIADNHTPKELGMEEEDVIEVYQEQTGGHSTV

[17] = target: T10, Small ubiquitin-related modifier 1; assay: SUMO1 protein-protein binding blockers, potency – biochemical, FRET, dose response (AID 624383); assay type: functional; details: read-out: IC50_Mean

T1 sequence (P11940 whole entry, the tested form may be a part): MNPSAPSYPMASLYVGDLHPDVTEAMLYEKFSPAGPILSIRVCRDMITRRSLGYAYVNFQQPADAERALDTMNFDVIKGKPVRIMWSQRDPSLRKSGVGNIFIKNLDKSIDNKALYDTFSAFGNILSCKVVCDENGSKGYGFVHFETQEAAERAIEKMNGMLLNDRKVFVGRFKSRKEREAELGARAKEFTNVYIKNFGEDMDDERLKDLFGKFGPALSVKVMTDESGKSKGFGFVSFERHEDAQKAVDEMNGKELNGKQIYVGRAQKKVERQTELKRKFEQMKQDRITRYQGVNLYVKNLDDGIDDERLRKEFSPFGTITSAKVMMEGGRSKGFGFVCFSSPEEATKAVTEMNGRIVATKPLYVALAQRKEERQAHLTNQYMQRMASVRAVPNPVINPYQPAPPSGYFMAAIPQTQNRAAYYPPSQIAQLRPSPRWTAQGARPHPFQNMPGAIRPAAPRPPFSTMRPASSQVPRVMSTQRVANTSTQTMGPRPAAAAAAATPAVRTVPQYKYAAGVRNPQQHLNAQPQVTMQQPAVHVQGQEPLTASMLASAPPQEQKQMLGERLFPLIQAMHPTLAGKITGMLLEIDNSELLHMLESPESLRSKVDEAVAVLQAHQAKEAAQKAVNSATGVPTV

## Cc1cc(C)c2cc3c(ccn3C3OC[C@H](O)[C@H](O)[C@H]3O)cc2n1 (stereo partly specified)
[1]
  IC50: 57.6 µM (inactive)
Estrogen receptor beta
  IC50: < 0.023 µM (not active)
Bcl-2-like protein 10
  IC50: > 6.25 µM (inactive)
[2]
  IC50: > 66 µM (inactive)

## Cc1ccc(NC(=O)Nc2nnc(-c3ccncc3)s2)cc1
HEK293 [3]
  IC50: 5.87 µM (active)
Ion channel NompC
  EC50: > 29.9 µM (inactive)
Mucolipin-3
  EC50: > 29.9 µM (not active)
HEK293 [4]
  IC50: > 20 µM (inactive)
HEK293 [5]
  EC50: 3.38 µM (active)

## C#CCSc1nnc(-c2cccc3ccccc23)o1
cells
  IC50: 9.32 µM (active)
[6]
  CC50: 20.6 µM (active)
Protein skinhead-1
  IC50: 10.2 µM (active)
[7]
  CC50: 15.7 µM (active)

## COc1ccc(S(=O)(=O)Nc2ccncn2)cc1OC
[8]
  IC50: > 100 µM (not active)
[9]
  IC50: > 100 µM (inactive)

## O=c1[nH]c(/C=C/c2ccccc2Cl)nc2ccccc12
Caspase-3
  IC50: 1.61 µM (active)
[10]
  IC50: > 100 µM (inactive)
[11]
  IC50: > 50 µM (inactive)
[12]
  IC50: 1.64 µM (active)
[13]
  IC50: > 56.8 µM (not active)
[14]
  IC50: 1.4 µM (active)

## COC(=O)C(/C=N/OCc1ccc([N+](=O)[O-])cc1)NC(=O)c1cccc(Cl)c1 (stereo unspecified)
Ion channel NompC
  EC50: > 29.9 µM (inactive)
Mucolipin-3
  EC50: > 29.9 µM (not active)

## CC(C)[C@H](CO)Nc1nc(Nc2ccc(Cl)c(C(=O)O)c2)c2ncn(C(C)C)c2n1
[15]
  AC50: 9.44 µM (active)
[16]
  IC50: > 66.6 µM (inactive)
[17]
  IC50: 21.4 µM (inactive)
